Assay results: patent publication US20190177440A1, “COMPOUND OR SALT THEREOF, ANTI-INFLAMMATORY AGENT, ANTI-CANCER AGENT AGAINST LUNG CANCER, METHOD OF PRODUCING COMPOUND OR SALTS THEREOF, METHOD OF TREATING INFLAMMATORY DISEASES AND METHOD OF TREATING LUNG CANCER” (TFK CO., LTD., priority 2016, published 2019)

Tested on: TNF-α
Experiment: TNF-α production in RAW264.7 cells stimulated with LPSp (Example 7)
Assay type: cell-based, mouse
Conditions: final 1 ng/mL to 10 μg/mL, then LPSp 100 ng/mL, FIG. 7
Protocol: The culture medium was added to mouse macrophage cells (RAW264.7, ATCC) to prepare solutions at concentrations of 4×10^5 cells/mL. The solutions were seeded in 96-well flat-bottomed plates in 100 μL portions, i.e., 4×10^4 cells/100 μL/well. After seeding, the cells were incubated at 37° C. in 5% CO2 for 2 hours until they adhered to the bottoms of the wells and extended. Next, 100 μL of the test solution was added to each well. After adding the test solution, the cells were incubated at 37° C. in a 5% CO2 for 24 hours. After the incubation, the culture supernatant of the wells was removed, 150 μl of the above-mentioned culture solution was newly added (hereinafter, this step is referred to as a “culture solution adding step”), and the wells were incubated at 37° C. in a 5% CO2 for 24 hours.
After incubation, 50 μl of culture supernatant from each well was collected, transferred to each well of new 96-well flat-bottom plates, and absorbance was measured using mouse TNF a assay kit (manufactured by Biolegend) and converted to TNF-α concentrations.
In this example, an experiment was carried out in the same manner as in Example 6 except for the following two points, and 50 μL of culture supernatant of each well was collected and TNF-α concentration was measured. That is, in this example, a total of five test solutions were used as the test solution, in which the concentration of the purified product was 20 μg/mL, 2 μg/mL, 200 ng/mL, 20 ng/mL, and 2 ng/mL. Since the five test solutions are diluted twice when added to the cells, the final concentrations of the purified products are 10 μg/mL, 1 μg/mL, 100 ng/mL, 10 ng/mL, and 1 ng/mL, respectively. In this example, in the culture medium adding step in Example 5, 150 μL of the culture medium containing LPSp at a final concentration of 100 ng/mL was added instead of 150 μL of the culture medium.

SMILES	TNF-α concentration in culture supernatant
CCCCCC/C=C/CCCCCC(=O)OC(CCCCCCCCCCC)CC(=O)NC1C(OCC2OC(OP(=O)(O)O)C(NC(=O)CC(=O)CCCCCCCCCCC)C(OC(=O)CC(O)CCCCCCC)C2O)OC(COC2(C(=O)O)CC(OC3(C(=O)O)CC(O)C(OC4OC(C(=O)O)C(OC5OC(CO)C(O)C(O)C5O)C(O)C4O)C(C(O)CO)O3)C(OC3OC(CO)C(O)C(O)C3O)C(C(O)CO)O2)C(OP(=O)(O)O)C1OC(=O)CC(O)CCCCCCC (stereo not shown) [Formula (B2)]	Equivalent results were obtained
CCCCCC/C=C/CCCCCC(=O)OC(CCCCCCCCCCC)CC(=O)NC1C(OCC2OC(OP(=O)(O)O)C(NC(=O)CC(=O)CCCCCCCCCCC)C(OC(=O)CC(O)CCCCCCC)C2O)OC(COC2(C(=O)O)CC(OC3(C(=O)O)CC(OC4OC(C(=O)O)C(OC5OC(CO)C(O)C(O)C5O)C(O)C4O)C(O)C(C(O)CO)O3)C(OC3OC(CO)C(O)C(O)C3O)C(C(O)CO)O2)C(OP(=O)(O)O)C1OC(=O)CC(O)CCCCCCC (stereo not shown) [Formula (A2)]	Equivalent results were obtained
CCCCCC/C=C/CCCCCC(=O)OC(CCCCCCCCCCC)CC(=O)NC1C(OCC2OC(OP(=O)(O)O)C(NC(=O)CC(=O)CCCCCCCCCCC)C(OC(=O)CC(O)CCCCCCC)C2O)OC(COC2(C(=O)O)CC(OC3(C(=O)O)CC(OC4OC(C(=O)O)C(OC5OC(CO)C(O)C(O)C5O)C(O)C4O)C(O)C(C(O)CO)O3)C(OC3OC(COP(=O)(O)O)C(OC4OC(CO)C(O)C(O)C4O)C(O)C3O)C(C(O)CO)O2)C(OP(=O)(O)O)C1OC(=O)CC(O)CCCCCCC (stereo not shown) [Formula (A1)]	Equivalent results were obtained
CCCCCC/C=C/CCCCCC(=O)OC(CCCCCCCCCCC)CC(=O)NC1C(OCC2OC(OP(=O)(O)O)C(NC(=O)CC(=O)CCCCCCCCCCC)C(OC(=O)CC(O)CCCCCCC)C2O)OC(COC2(C(=O)O)CC(OC3(C(=O)O)CC(O)C(OC4OC(C(=O)O)C(OC5OC(CO)C(O)C(O)C5O)C(O)C4O)C(C(O)CO)O3)C(OC3OC(COP(=O)(O)O)C(OC4OC(CO)C(O)C(O)C4O)C(O)C3O)C(C(O)CO)O2)C(OP(=O)(O)O)C1OC(=O)CC(O)CCCCCCC (stereo not shown) [Formula (B1)]	Equivalent results were obtained
